# Laboratory results published in PubChem BioAssay (NCI).
# “And” between values parts separate entries of the source, which are not always exact repeats. Identical values can stand only once.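 Method: 48-hour compound exposure of cells in 96-well plates, five concentrations, linear interpolation of endpoints. GI50 = concentration required for 50% inhibition of growth. At the TGI there is no net growth.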
# Assays:
# Experiment in all cases: inhibition of tumour cell growth, NCI panel, 48 h
# HOP-92 NSCLC = tested on: HOP-92 NSCLC
# HCT-116 colon = tested on: HCT-116 colon
# A549 NSCLC = tested on: A549 NSCLC
# SNB-75 CNS = tested on: SNB-75 CNS
# MCF7 breast = tested on: MCF7 breast
# SF-539 CNS = tested on: SF-539 CNS
# OVCAR-3 ovarian = tested on: OVCAR-3 ovarian
# HCT-15 colon = tested on: HCT-15 colon
# K-562 leukemia = tested on: K-562 leukemia
# SR leukemia = tested on: SR leukemia
Compound,GI50 (HOP-92 NSCLC),TGI (HOP-92 NSCLC),GI50 (HCT-116 colon),TGI (HCT-116 colon),GI50 (A549 NSCLC),TGI (A549 NSCLC),GI50 (SNB-75 CNS),TGI (SNB-75 CNS),GI50 (MCF7 breast),TGI (MCF7 breast),GI50 (SF-539 CNS),TGI (SF-539 CNS),GI50 (OVCAR-3 ovarian),TGI (OVCAR-3 ovarian),GI50 (HCT-15 colon),TGI (HCT-15 colon),TGI (K-562 leukemia),TGI (SR leukemia),GI50 (K-562 leukemia),GI50 (SR leukemia)
Cc1ccc(NCCNCC(C)(C)O)c2c(=O)c3ccc(Cl)cc3sc12,0.455 µM,1.92 µM,1.3 µM,2.66 µM,1.64 µM,3.09 µM,1.34 µM,2.85 µM,1.44 µM,2.97 µM,1.44 µM,2.82 µM,1.66 µM,3.13 µM,1.05 µM,2.32 µM,–,–,–,–
COC(=O)C1=NC(=S)NC(c2ccccc2)C1c1nc2ccccc2o1 (configuration not stated),–,> 50 µM,–,> 50 µM,–,> 50 µM,–,–,–,–,–,> 50 µM,–,> 50 µM,–,> 50 µM,> 50 µM,> 50 µM,–,–
CCCCCCCCCCCC/C=C\CC[C@@H](O)[C@H](O)CC[C@H](O)[C@@H]1CC[C@@H](CCCCCCCC2=C[C@H](C)OC2=O)O1,17.4 µM,8.69 µM and 55.2 µM,0.231 µM,27.1 µM,3.36 µM,23 µM,12.8 µM,29.1 µM,4.76 µM,34.6 µM,–,–,0.434 µM,6.64 µM and 18.7 µM,8.86 µM,33.8 µM,30 µM,–,–,–
CC(C)(O)C1COC2=C1C(=O)c1ccccc1C2=O (configuration not stated),–,> 100 µM,–,66.9 µM,–,> 100 µM,–,82 µM,–,40.1 µM,–,> 100 µM,–,57.8 µM,–,> 100 µM,> 100 µM,–,–,–
Cc1cc(NCCCCCCCNc2cc(C)nc3cc(N)ccc23)c2ccc(N)cc2n1,–,–,–,> 100 µM,–,> 100 µM,–,> 100 µM,–,–,–,> 100 µM,–,> 100 µM,–,> 100 µM,26.1 µM,66.8 µM,–,–
CC(C)c1ccc(O)c(Cc2cc(C(C)C)cc(Cc3cc(C(C)C)ccc3O)c2O)c1,–,3.33 µM,–,3.19 µM,–,3.96 µM,–,5.03 µM,–,–,–,–,–,3.03 µM,–,3.24 µM,4.78 µM,4.45 µM,–,–
O=C1C(Cl)=C(Nc2ccc(S(=O)(=O)c3ccc(NC4=C(Cl)C(=O)c5ccccc5C4=O)cc3)cc2)C(=O)c2ccccc21,1.96 µM,3.44 µM,1.2 µM,2.49 µM,5.71 µM,38.8 µM,1.04 µM,2.33 µM,–,–,1.91 µM,3.71 µM,–,–,–,–,5.24 µM,7.19 µM,1.63 µM,1.27 µM
COC(=O)Cc1cc(=O)n2c3ccccc3n(C)c2c1C#N,–,–,–,> 100 µM,–,> 100 µM,–,> 100 µM,–,–,–,> 100 µM,–,> 100 µM,–,> 100 µM,> 100 µM,> 100 µM,–,–
CCn1cc(C(=O)O)c(=O)c2cc(F)c(N3CCN(S(=O)(=O)c4ccc(Cl)cc4Cl)CC3)cc21,1.22 µM,5.22 µM,3.56 µM,> 100 µM,2.89 µM,> 100 µM,–,–,2.95 µM,15.2 µM,1.92 µM,4.07 µM,2.54 µM,5.79 µM,2.82 µM,> 100 µM,> 100 µM,–,4 µM,–
CC(=O)CCC1(c2ccccc2)OC(=O)C(C#N)=C1c1ccccc1 (configuration not stated),–,> 100 µM,–,> 100 µM,–,> 100 µM,–,74.1 µM,–,–,–,> 100 µM,–,> 100 µM,–,> 100 µM,> 100 µM,–,–,–
COc1cc2c(c(OC)c1OC)-c1cc(I)c(O)cc1[C@@H](NC(C)=O)CC2,0.0639 µM,10.9 µM,0.0409 µM,19.4 µM,0.0695 µM,> 40.1 µM,0.0332 µM,> 92.5 µM,0.0336 µM,> 100 µM,0.0314 µM,0.178 µM,0.0258 µM,0.0623 µM,0.118 µM,> 100 µM,> 100 µM,–,0.0324 µM,–
COC(=O)CC1(O)C(=O)OCc2c1cc1n(c2=O)Cc2c-1nc1ccccc1c2OC (configuration not stated),–,92.2 µM,–,> 100 µM,–,> 100 µM,–,3.56 µM,–,–,–,0.681 µM,–,> 57.4 µM,–,> 100 µM,> 100 µM,< 0.0136 µM,–,–
Cc1ccc(C)c2c1C1CCCCC3(OCCCO3)C21O (configuration not stated),–,–,–,> 100 µM,–,> 100 µM,–,> 100 µM,–,–,–,> 100 µM,–,> 100 µM,–,> 100 µM,> 100 µM,–,–,–
Clc1ccc(C=Nc2ccc(-c3nc4ccccc4[nH]3)cc2)cc1,89.1 µM,> 100 µM,> 100 µM,> 100 µM,> 100 µM,> 100 µM,77.7 µM,> 100 µM,> 100 µM,> 100 µM,> 100 µM,> 100 µM,> 100 µM,> 100 µM,> 100 µM,> 100 µM,–,–,–,–
Nc1ncn([C@H]2CC(O)[C@@H](CO)S2)c(=O)n1 (some centres not stated),> 100 µM,> 100 µM,0.371 µM,> 100 µM,2.79 µM,> 100 µM,53.9 µM,> 100 µM,0.382 µM,> 100 µM,16.7 µM,> 100 µM,6.08 µM,> 100 µM,1.71 µM,> 100 µM,> 100 µM,–,2.2 µM,–
C=CCC(N[C@@H](CO)c1ccccc1)c1ccc2ccccc2n1 (some centres not stated),–,–,> 100 µM,> 100 µM,> 100 µM,> 100 µM,51.2 µM,> 100 µM,–,–,> 100 µM,> 100 µM,57.4 µM,> 100 µM,> 100 µM,> 100 µM,> 100 µM,65.5 µM,36.2 µM,17.2 µM
Cc1cc(N2CCC(N3CCCC3)CC2)nc(/N=C(\N)Nc2ccc(Cl)c(Cl)c2)n1,–,–,1.93 µM,3.63 µM,1.78 µM,3.42 µM,1.58 µM,3.12 µM,1.29 µM,2.69 µM,1.72 µM,3.54 µM,1.72 µM,3.26 µM,1.64 µM,3.64 µM,> 100 µM,> 100 µM,2.58 µM,0.255 µM
